Data published in PMC11643690, “Chelating Properties of N6O-Donors Toward Cu(II) Ions: Speciation in Aqueous Environments and Catalytic Activity of the Dinuclear Complexes” (Molecules, 2024).

Assays:
[1] = ESI-MS(+) competition with equimolar Cu, Fe, Mn, Zn perchlorates; format: binding; conditions: half an equivalent of ligand
Protocol: Equimolar solutions of Cu(ClO4)2, Fe(ClO4)2, Mn(ClO4)2, and Zn(ClO4)2 were prepared, and half an equivalent of HL-CH3 was added. The composition of the solution was then analyzed with ESI-MS to determine which species were formed. […] The most intense signal is the cluster at m/z = 855, referring to the species [Cu2(L-CH3)(ClO4)2]^+. Other signals are at m/z = 801 for [Cu2(L-CH3)(COO)(ClO4)]^+ and m/z = 351 for [Cu2(L-CH3)(ClO4)]^2+.

[2] = UV–Vis titration of HL-CH3 with Zn(ClO4)2, binding constant; conditions: Zn(II); 0.1 mM ligand, 5% v/v MeOH/BBS 50 mM, pH 7.4
Protocol: (§1) To evaluate the selectivity of these ligands towards copper, the same titrations were performed with different metal salts: Fe(ClO4)2, Mn(ClO4)2, and Zn(ClO4)2, monitoring the methyl-substituted ligand (Figures S39–S41). These metal ions were chosen because they are also divalent and common in biological matrixes.
(§2) For the determination of the binding constant between metals and ligands, a solution of the latter was titrated with 0.2 eq of metal for each addition. The titrating solutions were 10 mM and 100 μM for Cu(ClO4)2 versus 0.1 mM and 1 μM for the ligands in 5% v/v MeOH/BBS (50 mM, pH 7.4), respectively. […] The absorbance variation was monitored from 200 nm to 800 nm at 25 °C. […]
(§3) UV-vis spectra of ligands and complexes were recorded in a quartz cuvette, with 1 cm of optical path. […]
(§4) The titrating solutions were 10 mM and 100 μM for Cu(ClO4)2 versus 0.1 mM and 1 μM for the ligands in 5% v/v MeOH/BBS (50 mM, pH 7.4), respectively. […] The absorbance variation was monitored from 200 nm to 800 nm with a Varian Cary 50 instrument, thermostated at 25 °C.
(§5) The binding constants were then determined by nonlinear regression analysis of the plot “ΔAbs/b vs Cu(II) concentration” (Equation 7 ), according to K. Connors, The Measurement of Molecular Complex Stability, Madison, Wisconsin, Wiley, 1987[5]. […]
(§6) ΔA: absorbance at a certain wavelength. […]

[3] = Potentiometric titration of the free ligand (protonation constants); format: physicochemical
Protocol: As far as the ligand behavior in aqueous solutions is concerned, the speciation curves were obtained from the titration of an L-CH3 solution (0.1 mM in DMSO 5% (v/v)/H2O (HCl/KCl); initial pH = 2.7) by stepwise addition of NaOH 0.1 M. The distribution curves and the acid association constants were then calculated (Figure 1 and Table 1).
At low pH, L-CH3 has seven protic groups that can be deprotonated upon pH increase: besides the phenolic OH, two tertiary amines and four pyridines. From the titration, six logKa could be successfully obtained. The highest one, logKa = 9.75, is related to the phenolic group. The next constants are ascribed to the nitrogens of the tertiary amines and of the Pyr groups, although they are difficult to unambiguously correlate with a specific functional group. […] The potentiometric titration was carried out till pH 9.5 to avoid the precipitation of the ligand in the basic environment.
Potentiometric measurements were carried out using the Metrohm pH-meter system (Herisau, Switzerland) with a Metrohm semi-micro combination electrode at 25 °C, calibrated in a hydrogen ion concentration using HCl. The ligands were dissolved in DMSO (5% v/v/H2O (HCl/KCl)) in order to obtain a concentration of 1 mM. The titrant (KOH 0.1M) was added with a micrometric syringe at 298 K in the pH range of 2.5–11.5 in an argon atmosphere. The stability constants and stoichiometry of the complexes were calculated using the titration curves and the SUPERQUAD and HYPERQUAD [47, 48].

[4] = UV–Vis titration of HL-CH3 with Mn(ClO4)2, binding constant; conditions: Mn(II); 0.1 mM ligand, 5% v/v MeOH/BBS 50 mM, pH 7.4
Protocol: as §1, §2, §3, §4, §5, §6

[5] = overall protonation constant, DMSO 5% (v/v)/H2O (HCl/KCl), 25 °C

Structure (SMILES): Cc1cc(CN(Cc2ccccn2)Cc2ccccn2)c(O)c(CN(Cc2ccccn2)Cc2ccccn2)c1 [HL-CH3, 2,6-bis[(bis(2-pyridylmethyl)amino)methyl]-4-methylphenol]
- species formed in ESI-MS(+) spectrum [1]: only ascribable to the copper complex
- Kbind [2]: 2.49 × 10^8 M^−2
- log(Kbind) [2]: 8.39
- logβi, L^− + 2H^+ ⇌ [H2L]^+ [3, 5]: 16.57 ± 0.01
- logβi, L^− + 3H^+ ⇌ [H3L]^2+ [3, 5]: 21.56 ± 0.01
- logβi, L^− + 4H^+ ⇌ [H4L]^3+ [3, 5]: 25.27 ± 0.01
- logβi, L^− + 5H^+ ⇌ [H5L]^4+ [3, 5]: 27.83 ± 0.02
- logβi, L^− + 6H^+ ⇌ [H6L]^5+ [3, 5]: 29.60 ± 0.11
- logβi, L^− + H^+ ⇌ HL [3, 5]: 9.75 ± 0.01
- logKa, HL + H^+ ⇌ [H2L]^+ ([3]; stepwise constant): 6.82
- logKa, [H2L]^+ + H^+ ⇌ [H3L]^2+ ([3]; stepwise constant): 4.99
- logKa, [H3L]^2+ + H^+ ⇌ [H4L]^3+ ([3]; stepwise constant): 3.71
- logKa, [H4L]^3+ + H^+ ⇌ [H5L]^4+ ([3]; stepwise constant): 2.56
- logKa, [H5L]^4+ + H^+ ⇌ [H6L]^5+ ([3]; stepwise constant): 1.77
- logKa, L + H^+ ⇌ HL ([3]; stepwise constant, phenolic group): 9.75
- Kbind [4]: 6.12 × 10^7 M^−2
- log(Kbind) [4]: 7.78
